Consider eight molecules from patent publication US20060089378A1 (priority 2004, published 2006).

The target in one test is T1, Cannabinoid CB2 Receptor (Homo sapiens, UniProt P34972).
T1 construct: expressed in transfected cells
Kind of test: Binding assay for CB2 agonists or inverse agonists (radioligand competition, membranes of transfected SK-N-MC cells). A general note: Loss of bound radioactivity is the signal in a displacement assay; it reports binding, not function.

A further test concerns the target T2, CB2 receptor (human) (Homo sapiens, UniProt P34972).
T2 construct: expressed in transfected cells
As to the kind of experiment: Functional cell-based assay, CB2 receptor mediated change in CRE β-gal expression (adenylate cyclase activity) in SK-N-MC cells.

The target of the next test is T3, Cannabinoid CB1 Receptor (Homo sapiens, UniProt P21554).
T3 construct: expressed in transfected cells
As to the kind of experiment: Binding assay for CB1 agonists or inverse agonists (radioligand competition, membranes of transfected SK-N-MC cells).

In another test the target is CB1 receptor (human) (Homo sapiens, UniProt P21554). Kind of test: cell-based. As to conditions: for CB1 Receptor Functional Activity (change in functional activity, CRE β-gal): one compound concentration, β-galactosidase activity relative to vehicle treated cells.

SMILES strings stand for the structures. pEC50, pIC50: −log10 of the molar value. Like-named read-outs stand apart in the source and are kept apart here.

T2 sequence (P34972 whole entry): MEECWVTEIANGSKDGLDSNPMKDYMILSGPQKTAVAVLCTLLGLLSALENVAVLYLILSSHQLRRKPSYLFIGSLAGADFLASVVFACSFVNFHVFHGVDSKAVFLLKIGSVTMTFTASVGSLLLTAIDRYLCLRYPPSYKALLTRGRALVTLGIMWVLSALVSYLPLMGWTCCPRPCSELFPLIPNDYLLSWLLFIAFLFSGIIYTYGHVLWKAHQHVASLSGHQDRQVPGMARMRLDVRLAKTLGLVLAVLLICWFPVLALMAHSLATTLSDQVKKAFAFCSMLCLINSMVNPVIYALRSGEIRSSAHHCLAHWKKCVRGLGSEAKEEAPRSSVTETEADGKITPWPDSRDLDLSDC
T1 sequence (P34972 whole entry): as above
T3 sequence (P21554 whole entry): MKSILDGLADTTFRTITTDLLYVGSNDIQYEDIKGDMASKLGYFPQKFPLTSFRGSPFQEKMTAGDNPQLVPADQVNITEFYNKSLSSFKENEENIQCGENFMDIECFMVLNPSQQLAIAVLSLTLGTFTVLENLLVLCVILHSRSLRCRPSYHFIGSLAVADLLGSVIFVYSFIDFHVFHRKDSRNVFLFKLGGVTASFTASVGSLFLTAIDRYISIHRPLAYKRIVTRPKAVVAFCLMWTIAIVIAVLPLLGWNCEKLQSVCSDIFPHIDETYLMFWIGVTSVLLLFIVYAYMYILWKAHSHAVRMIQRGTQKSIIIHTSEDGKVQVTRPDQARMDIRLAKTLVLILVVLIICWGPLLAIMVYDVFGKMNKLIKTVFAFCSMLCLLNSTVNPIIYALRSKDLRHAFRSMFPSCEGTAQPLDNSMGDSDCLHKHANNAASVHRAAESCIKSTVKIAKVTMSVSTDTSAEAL
Chain of CB1 receptor (human) (P21554 whole entry): as above

Broadly, the pIC50 is −log10 of the IC50, conventionally taken in molar units. A high value points to a small IC50. For orientation: pEC50 means −log10 of the EC50, conventionally taken in molar units. In the case of `CC12CCC(C1)C(C)(C)C2NC(=O)c1nn(C2CCCCC2)c2c1CN(S(C)(=O)=O)CC2` (stereo not drawn) [Cpd 133, 1-cyclohexyl-5-methanesulfonyl-4,5,6,7-tetrahydro-1H-pyrazolo[4,3-c]pyridine-3-carboxylic acid (1,3,3-trimethyl-bicyclo[2.2.1]hept-2-yl)-amide], the figures for the pIC50 at Cannabinoid CB2 Receptor and at Cannabinoid CB1 Receptor were 6.52 and 6.40, respectively. Moreover, the “change in functional activity” value at CB2 receptor (human) (CB2 section, one compound concentration, relative to vehicle treated cell activity (100%)) is listed as −29%. On CB1 receptor (human), this molecule showed a pEC50 of 6.14.
`CC(=O)N1CCc2c(c(C(=O)NC3C4(C)CCC(C4)C3(C)C)nn2C2CCCCC2)C1` (stereo not drawn) [Cpd 123, 5-acetyl-1-cyclohexyl-4,5,6,7-tetrahydro-1H-pyrazolo[4,3-c]pyridine-3-carboxylic acid (1,3,3-trimethyl-bicyclo[2.2.1]hept-2-yl)-amide]: the negative-log IC50 (pIC50) on Cannabinoid CB2 Receptor is 7.40; at Cannabinoid CB1 Receptor, 6.70. Moreover, at CB2 receptor (human), the negative-log EC50 (pEC50) is 7.85.
In the case of `COC(=O)N1CCc2c(c(C(=O)NC3C4(C)CCC(C4)C3(C)C)nn2C2CCCCC2)C1` (stereo not drawn) [Cpd 119, 1-cyclohexyl-3-(1,3,3-trimethyl-bicyclo[2.2.1]hept-2-ylcarbamoyl)-1,4,6,7-tetrahydro-pyrazolo[4,3-c]pyridine-5-carboxylic acid methyl ester], the negative logarithm of the IC50 (pIC50) is 7.05 on Cannabinoid CB2 Receptor and 6.70 at Cannabinoid CB1 Receptor. Further, the negative-log EC50 (pEC50) is 7.70 on CB2 receptor (human) and 6.70 at CB1 receptor (human).
With `CC(C)(C)OC(=O)N1CCc2c(c(C(=O)NC3C4(C)CCC(C4)C3(C)C)nn2C2CCCCC2)C1` (stereo not drawn) [Cpd 117, 1-cyclohexyl-3-(1,3,3-trimethyl-bicyclo[2.2.1]hept-2-ylcarbamoyl)-1,4,6,7-tetrahydro-pyrazolo[4,3-c]pyridine-5-carboxylic acid tert-butyl ester], the pIC50 at Cannabinoid CB2 Receptor is 8.00; at Cannabinoid CB1 Receptor, 4.93. Further, the negative-log EC50 (pEC50) at CB2 receptor (human) (SK-N-MC cells expressing CRE β-gal and human CB2, forskolin, β-galactosidase activity, varying compound concentrations, read-out: CB2 Receptor Functional Inverse Agonist EC50) is 7.05. For the same molecule, the “CB1 Receptor Functional Activity (change in functional activity, CRE β-gal)” value on CB1 receptor (human) is −10%.
For the molecule `COC(=O)N1CCc2c(c(C(=O)NC3C4(C)CCC(C4)C3(C)C)nn2Cc2ccccc2)C1` (stereo not drawn) [Cpd 106, 1-benzyl-3-(1,3,3-trimethyl-bicyclo[2.2.1]hept-2-ylcarbamoyl)-1,4,6,7-tetrahydro-pyrazolo[4,3-c]pyridine-5-carboxylic acid methyl ester], the figures for the pIC50 on Cannabinoid CB2 Receptor and at Cannabinoid CB1 Receptor were 8.70 and 6.70, respectively. In addition, the pEC50 on CB2 receptor (human) is 9.10; at CB1 receptor (human) it was 5.05.
Turning to `Cc1ccc(S(=O)(=O)N2CCc3c(c(C(=O)NC4C5(C)CCC(C5)C4(C)C)nn3C3CCCCC3)C2)cc1` (stereo not drawn) [Cpd 124, 1-cyclohexyl-5-(toluene-4-sulfonyl)-4,5,6,7-tetrahydro-1H-pyrazolo[4,3-c]pyridine-3-carboxylic acid (1,3,3-trimethyl-bicyclo[2.2.1]hept-2-yl)-amide], the pIC50 was 7.70 on Cannabinoid CB2 Receptor and 5.82 at Cannabinoid CB1 Receptor. Besides, on CB2 receptor (human), the negative logarithm of the EC50 (pEC50) is 7.52.
For the molecule `CCOC(=O)N1CCc2c(c(C(=O)NC3C4(C)CCC(C4)C3(C)C)nn2C2CCCCC2)C1` (stereo not drawn) [Cpd 120, 1-cyclohexyl-3-(1,3,3-trimethyl-bicyclo[2.2.1]hept-2-ylcarbamoyl)-1,4,6,7-tetrahydro-pyrazolo[4,3-c]pyridine-5-carboxylic acid ethyl ester], the pIC50 was 7.70 at Cannabinoid CB2 Receptor and 6.30 at Cannabinoid CB1 Receptor. The pEC50 is 7.30 on CB2 receptor (human) and 7.70 on CB1 receptor (human).
Take `CCOC(=O)N1CCc2c(c(C(=O)NC3C4(C)CCC(C4)C3(C)C)nn2Cc2ccccc2)C1` (stereo not drawn) [Cpd 107, 1-benzyl-3-(1,3,3-trimethyl-bicyclo[2.2.1]hept-2-ylcarbamoyl)-1,4,6,7-tetrahydro-pyrazolo[4,3-c]pyridine-5-carboxylic acid ethyl ester]: the negative logarithm of the IC50 (pIC50) on Cannabinoid CB2 Receptor was 8.52; on Cannabinoid CB1 Receptor it was 7.00. The pEC50 at CB2 receptor (human) is 8.22. Further, the “CB1 Receptor Functional Activity (change in functional activity, CRE β-gal)” value at CB1 receptor (human) was −6%.
